Test results published in patent publication US9364551B2, “Light-enabled drug delivery” (Virginia Commonwealth University, priority 2011, dated 2016).
Where a name gives a salt, the structure may show the parent alone. Read-outs that look alike come from different tables or passages of the source. Where no end group is shown, it is not given here. [ ]: non-standard residue; d: D form. bis‑iodoacetamido azobenzene = bis-iodoacetamido azobenzene crosslinker; Aib = CC(C)(N)C(=O)O

Legend:
JH-EsoAd1 cells [1] = test: Concentration dependent cell viability (MTT assay); type: cell-based
Procedure: (§1) The Esophageal cancer cell line (JH-EsoAd1) was cultured at 37° C. and in a humidified atmosphere of 5% CO2 in RPMI 1640 medium supplemented with 10% fetal bovine serum (FBS). For 96 well plate experiments, the JH-EsoAd1 cells were seeded at 4450 cells/well in 100 uL of media in 96 well plates; experiments were carried out one day after seeding. MTT assays were analyzed using a Bio-Tex μQuant plate reader at 562 nm. FACS was performed BD FACS Aria II using BD FACS Diva software at the VCU Flow Cytometry Core Facility. A minimum of 20,000 cells within the gated region were analyzed. Confocal microscopy images were acquired at room temperature with a Leica confocal laser scanning microscope.
(§2) JH-EsoAd1 cells were treated with media alone, media supplemented with EDANS (20 μM), or media supplemented with Dox-EDANS (9) (20 μM) in a 96 well clear-bottom, opaque plate. Cells were exposed to light (9 mW/cm^2) for various times (0-40 min) regulated by an aluminum foil mask. During the experiment the plate was kept in ice to reduce the heating by the UV lamp. After the lamp was turned off, the plate was covered with foil and placed at room temperature for an additional 80 min. The media was removed, and the cells were thoroughly washed with media (3×); then 200 μL of fresh media was added to each well. The plates were incubated for 72 hours at 37° C., following which the media was removed and 100 µL of MTT (2 mg/ml) in phosphate buffered saline (PBS) was added to each well. After 3 hours, the MTT solution was removed and replaced with 100 μL of DMSO. The absorbance at 562 nm was analyzed via a plate reader.
JH-EsoAd1 cells were treated with media supplemented with various concentrations of doxorubicin (0-6.4 μM) or Dox-EDANS (9) (0-16 μM) in a 96 well clear-bottom, opaque plate. Control wells were covered with aluminum foil while the remaining wells were exposed UV light (9 mW/cm^2) for 20 min. The plate was kept in ice during light exposure in order to minimize the heating. After irradiation, the plate was kept at it in the dark for another 100 minutes. […]

JH-EsoAd1 cells [2] = test: Illumination time-dependent toxicity (MTT assay); type: cell-based
Procedure: as §1
as §2, with “The plates were incubated for 72 hours at 37° C., following which the media was removed and 100 µL of MTT (2 mg/ml) in phosphate buffered saline (PBS) was added to each well. After 3 hours, the MTT solution was removed and replaced with 100 μL of DMSO.” left out

JH-EsoAd1 cells [3] = test: Confocal microscopic analysis of permeability; type: cell-based; settings: 10 μM, light-treated cells vs dark
Procedure: as §1
JH-EsoAd1 cells were seeded at 30,000 cells/well on 4 well glass chamber slides, and were treated as above (Flow cytometry analysis). The cells were treated with media alone or media supplemented with 10 μM of EDANS-Dox (6). The plate was placed on ice, and the light treated cells were exposed to UV light (9 mW/cm^2) for 20 minutes. Following the light exposure the plates were kept at room temperature for 100 minutes. The cells were washed extensively with PBS and fixed for 15 min at 37° C. with 3% paraformaldehyde in PBS. Slides were rinsed, dried and mounted under coverslips using Vectashield mounting media (Vector Laboratories, Inc.).

[4] = Photolytic release of doxorubicin from drug conjugate (RP-HPLC); type: physicochemical; settings: PBS buffer, UV light 365 nm (9.0 mW/cm^2), 0.5-30 min
Procedure: The photolytic release of doxorubicin from the drug conjugate was analyzed using HPLC. The drug conjugate was dissolved in PBS buffer and was exposed to UV light at 365 nm (9.0 mW/cm^2). Aliquots of the reaction mixture were collected at various times and were analyzed on RP-HPLC.
A solution (0.065 mM in 1 mL) of compound 6 in PBS was placed in a 60×15 mm well plastic dish placed on ice. The solution was irradiated and 70 μL was removed at various time points (0.5, 1, 2, 4, 8, 15, 20, and 30 minutes). Each assay was analyzed on RP-HPLC using isocratic elution of 20% organic eluent (0.1% TFA in acetonitrile) for 5 minutes and then using gradient elution from 20% to 70% for 30 minutes and was monitored at λabs=480 nm. (See FIG. 14).

[5] = HPLC monitoring of azobenzene cis to trans thermal relaxation after illumination; type: physicochemical; settings: fit to exponential decay
Source text: We also monitored the switching of the azobenzene by HPLC, since we were able to separate both the cis and trans peptide isomers (FIG. 19B). After illumination the cis isomer reverted to the trans isomer over time. […] The half-life is in line with measurements of similar peptides, but the % cis is lower than the typical 80-95%. Use of a filter to eliminate the longer wavelength light (our light source has a spike of intensity at 405 nm which can promote cis to trans reversion) would enhance photoswitching upon irradiation.

[6] = CD spectra of photoswitching; type: physicochemical

## COc1cc(C(C)OC(=O)NC2C[C@H](OC3C[C@](O)(C(=O)CO)Cc4c(O)c5c(c(O)c43)C(=O)c3c(OC)cccc3C5=O)C[C@@H](C)[C@H]2O)c([N+](=O)[O-])cc1OCCCC(=O)NCc1cn(-c2ccc(C(=O)NCCNc3cccc4c(S(=O)(=O)O)cccc34)cc2)nn1 (stereo partly shown) [EDANS-Dox, Photocaged-Cell Impermeable Dox. Conjugate]
JH-EsoAd1 cells [1]; 20 min, illumination 365 nm, 9.0 mW/cm^2, 20 min, read-out: IC50, cytotoxicity upon illumination
  IC50: 1.6 ± 1 µM
JH-EsoAd1 cells [1]; in the dark, at the highest value tested (16 µM)
  toxicity to the cells in the dark: not toxic
JH-EsoAd1 cells [2]; in the dark
  Survival of cells in the dark: equivalent to controls with no drug added
JH-EsoAd1 cells [2]; light 9 mW/cm^2, 0-40 min
  Cell survival with increased illumination: decreased survival
JH-EsoAd1 cells [3]
  Dox fluorescence in the nucleus (confocal): only light-treated cells show significant Dox fluorescence in the nucleus
[4]
  photolytic release of doxorubicin: time-depended drug release in the presence of light

## *CRACARVXAACRAAARQ (RACARV[Aib]AACRAAARQ; linker (positions not given here) via bis‑iodoacetamido azobenzene; not fully specified (N-terminus, bridges); also: bis-iodoacetamido azobenzene crosslink, Cys pair not given here) [Peptide 1, arginine-rich photoswitchable peptide, cysteines crosslinked with bis-iodoacetamido azobenzene; X=2-aminoisobutyric acid]
[5]
  percentage of cis isomer upon illumination: 55%
[6]; 370 nm light, 25° C., illumination for 5 min
  conformation upon irradiation (CD): more α-helical
[6]; after 30 minutes in the dark
  conformation after removal of light (CD): reverted mostly back to the more random coiled state

## COc1cccc2c1C(=O)c1c(O)c3c(c(O)c1C2=O)C[C@@](O)(C(=O)CO)C[C@@H]3O[C@H]1C[C@H](N)[C@H](O)[C@H](C)O1 [Dox, Doxorubicin Hydrochloride, reference compound]
JH-EsoAd1 cells [1]; Dox alone, read-out: IC50 of Dox alone with the JH-EsoAd1 cells
  IC50: 1 ± 0.4 µM
